Results reported in patent US20230278957A1, “TREX1 INHIBITORS AND USES THEREOF” (WAKE FOREST UNIVERSITY HEALTH SCIENCES, priority 2020, published 2023).
pIC50: −log10 of the molar value. “Also recorded” adds a separate entry of the source. Where two headings read alike, the source gives them in different places.

What was measured:
Assay type in all cases: biochemical
[1] = target: T1, recombinant hTREX1(1-242)WT (hT1) (Homo sapiens, UniProt Q9NSU2); assay: fluorescence-based exonuclease assay, hTREX1 IC50 and HTS
T1 construct: recombinant hTREX1(1-242)^WT
T1 sequence (Q9NSU2 1-242): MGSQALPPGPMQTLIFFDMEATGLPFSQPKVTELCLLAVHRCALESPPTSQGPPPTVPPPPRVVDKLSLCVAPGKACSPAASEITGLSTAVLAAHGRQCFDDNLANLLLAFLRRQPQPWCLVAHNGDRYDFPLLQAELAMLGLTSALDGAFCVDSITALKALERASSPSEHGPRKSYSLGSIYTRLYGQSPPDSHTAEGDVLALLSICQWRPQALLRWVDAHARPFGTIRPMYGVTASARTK
Procedure: FIG. 1: Determining IC50 of Candidate Compounds. […] Standard time-course reactions were prepared in 150 µL volumes containing vehicle or indicated concentrations of inhibitor (Panel A= 0.1-10 µM; Panel C= 1-50 µM), incubated 1 hr at room temperature, and 20 µL samples of each reaction taken at time-points of 0, 5, 10, 20, 30, 45, & 60 minutes and quenched in 20 µL of 15X SYBR Green. Fluorescence was measured, and fluorescence versus time plots were normalized to maximal initial fluorescence and background fluorescence. Plots were fitted with nonlinear regression, then initial velocities of each reaction interpolated and normalized to vehicle-only control reactions to give percent activity. Plots of inhibitor concentration versus percent activity were fit with nonlinear regression to interpolate compound IC50. Plots were generated in Prism (GraphPad) and combined in PowerPoint. Active compounds had IC50 determined in at least three separate experiments. Panels E-F: Gel Assay Validation of Hit Compound IC50. Several hit compounds, including those shown, had their IC50 confirmed via gel assay to validate efficacy of the fluorescence-based biochemical assay. Results of the gel and fluorescence assays were in agreement for all compounds tested. Standard time-course reactions containing nicked plasmid were prepared in 150 µL volumes with the indicated concentrations of inhibitor, and incubated at room temperature. Reaction samples were taken at indicated times, quenched, dried in vacuo, resuspended, then visualized by agarose gel electrophoresis. Control lanes containing supercoiled dsDNA plasmid (‘Plasmid’) and undegraded nicked dsDNA plasmid (‘Nicked’) are included. Low-MW residual bands are ssDNA plasmid leftover from TREX1 exonuclease activity.
We altered a reported fluorescence-based exonuclease assay^17,23 for the purposes of HTS. The assay parameters were optimized to limit materials use and maximize the dynamic range of the assay readout. We used this assay to perform a HTS of the three mentioned libraries against recombinant hTREX1(1-242)^WT, hereafter abbreviated as ‘hT1’. In the case of all libraries, compounds eliciting ≤50% activity at their indicated screening concentrations were identified as ‘candidates’.
The biochemical assay used for HTS was also applied to determining candidate IC50. Briefly, time-course reactions were performed for a range of concentrations for each candidate, and plots of fluorescence vs time were normalized to the initial fluorescence of the reaction and the plate-wide background fluorescence. This normalization helped address compounds with inherent effects on the fluorescent readout. Initial velocities were calculated from normalized plots and used to calculate percent activities relative to vehicle-only control reactions. Standard dose-response curves were then constructed to interpolate candidate IC50. […] Candidates that initially tested with IC50 ≤100 µM had their IC50 redetermined in two additional, independent experiments. […] To validate the efficacy of the fluorescence-based assay at determining IC50, several of the hit compounds had their IC50 confirmed using a gel assay previously described by our lab^23. Briefly, a dsDNA plasmid is nicked, the substrate is incubated with TREX1 which degrades off (partially or completely) the nicked strand, and the reaction is quenched in ethanol, dried in vacuo, and visualized via agarose gel electrophoresis. Example data of these validation assays is provided (FIG. 1, Panels E-F).

hT1 = target: T2, hT1 (Homo sapiens, UniProt Q9NSU2); assay: jump-dilution reversibility of inhibition; settings: for reversibility classification: by IC50 ratio of jump-dilution
T2 construct: recombinant hTREX1(1-242)^WT
T2 sequence (Q9NSU2 1-242): T1 sequence (Q9NSU2 1-242)
Procedure: FIG. 4: Reversibility of Inhibition for Lead Compounds. Panel A: Summary chart of the results for each lead compound. IC50 ratios were calculated by dividing the […]. An IC50 ratio of 10 is expected for irreversible inhibitors, and the results were classified as follows: ≥ 5.0 → Irreversible, 2.0-5.0 → Ambiguous, 0.5-2.0 → Reversible. Panels B-G: Standard IC50 experiments were conducted with various concentrations of each lead compound. However, before enzyme addition to the reaction components the inhibitor or vehicle was pre-incubated with either the reaction components at ~1X the final concentration (‘Reaction Pre-Incubation’) or the enzyme at ~10X the final concentration (‘Enzyme Pre-Incubation’). The enzyme and reaction components were then combined to initiate reactions, and IC50 calculated as discussed earlier. TIM190 was included as an example of an irreversible inhibitor. Plots were generated in Prism (GraphPad), and figure was assembled in PowerPoint.
To determine whether our leads’ inhibition mechanisms were reversible, we utilized a strategy known as a ‘jump-dilution′^76. With this strategy, an inhibitor is initially incubated with the target at a high concentration, then, the inhibitor and target are diluted into reaction mix and the potency of the inhibitor is compared to a similar reaction without the pre-incubation step. If an inhibitor is covalent, time-dependent (slow-binding), or otherwise irreversible, then it will display potency consistent with the higher initial concentration, while reversible inhibitors’ potency is not meaningfully affected by the pre-incubation. We performed jump dilution experiments for our leads with our earlier described biochemical assay (FIG. 3). Under our conditions, irreversible inhibitors were expected to display a 10-fold potency increase in the jump-dilution reactions.

[2] = target: T3, recombinant wild-type human TREX2(1-236) (hT2) (Homo sapiens, UniProt Q9BQ50); assay: fluorescence-based exonuclease assay, counter-screen against hTREX2; settings: up to an inhibitor concentration of 100 µM
T3 construct: recombinant wild-type human TREX2(1-236), hereafter ‘hT2’
T3 sequence (Q9BQ50 1-236): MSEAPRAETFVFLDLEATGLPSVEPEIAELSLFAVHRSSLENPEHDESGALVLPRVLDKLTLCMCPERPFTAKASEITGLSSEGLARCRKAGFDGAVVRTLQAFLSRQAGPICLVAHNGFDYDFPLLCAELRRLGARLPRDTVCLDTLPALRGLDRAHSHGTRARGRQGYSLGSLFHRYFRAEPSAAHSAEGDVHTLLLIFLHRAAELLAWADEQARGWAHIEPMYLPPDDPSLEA
Procedure: (§1) FIG. 3: Counter-Screening Hit Compounds Against mTREX1 and hTREX2 Enzymes. Panel A: Summary chart of lead compounds’ IC50 against hTREX1 vs mTREX1 versus hTREX2. Panels B-F: Overlay of lead compounds’ dose-response curves for hTREX1, mTREX1, and hTREX2. Dose-response curves were generated as described earlier. Each dose-response curve is representative of three IC50 experiments. Graphs were prepared in Prism (GraphPad), and figure was assembled in PowerPoint.
(§2) We were also interested in the activity of our leads against enzymes more closely related to hT1, namely murine TREX1 and the highly related human TREX2 enzyme. mTREX1 was of interest, since future studies of the lead compounds would presumably take place in a murine model. hTREX2, which also functions as a 3′➔5′ exonuclease, is primarily expressed in keratinocytes (while TREX1 expression is more ubiquitous), and its mutation is not associated with an autoimmune phenotype, but instead results in a hypermutator phenotype in the skin that is conditional upon exposure to ultraviolet radiation^10,72-74. For mTREX1, cross-activity was preferred to allow later efficacy studies in a murine model. […] We determined the IC50 of lead compounds for recombinant wild-type murine TREX1(1-242), hereafter ‘mT1’, and for recombinant wild-type human TREX2(1-236), hereafter ‘hT2’ (FIG. 2). […]

[3] = target: T4, recombinant wild-type murine TREX1(1-242) (mT1) (Mus musculus, UniProt Q91XB0); assay: fluorescence-based exonuclease assay, counter-screen against mTREX1; settings: up to an inhibitor concentration of 100 µM
T4 construct: recombinant wild-type murine TREX1(1-242), hereafter ‘mT1’
T4 sequence (Q91XB0 1-242): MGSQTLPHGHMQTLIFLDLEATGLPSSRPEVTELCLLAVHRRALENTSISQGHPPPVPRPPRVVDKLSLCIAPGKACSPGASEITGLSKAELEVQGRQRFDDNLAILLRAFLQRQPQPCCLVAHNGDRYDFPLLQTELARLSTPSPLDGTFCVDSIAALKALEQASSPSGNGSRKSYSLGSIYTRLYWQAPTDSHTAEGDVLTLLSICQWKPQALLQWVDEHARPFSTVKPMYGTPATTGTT
Procedure: as §1, §2

[4] = experiment 1, read-out: IC50 #1
[5] = experiment 2, read-out: IC50 #2
[6] = experiment 3, read-out: IC50 #3
[7] = median of three independent experiments, read-out: Median IC50

| SMILES | pIC50 [1, 4] | pIC50 [1, 5] | pIC50 [1, 6] | pIC50 [1, 7] | reversibility classification (hT1) | increase in potency as a result of the jump-dilution (hT1; enzyme pre-incubation vs control reaction, 10-fold expected for irreversible inhibitors) [fold] | inhibition of hT2 [2] | inhibition of hT1 (in words) [1] | inhibition of mT1 [3] |
| --- | --- | --- | --- | --- | --- | --- | --- | --- | --- |
| Cc1cccc(C(=O)Nc2ccc(-c3cc4ccccc4oc3=O)cc2)c1 [TIM003] | 4.60 | 5.11 | 5.06 | 5.06 | – | – | – | – | – |
| Cc1cnc(/C=C/c2ccccc2)c2[nH]c3ccccc3c12 [TIM047] | 4.80 | 5.17 | 4.82 | 4.82 | – | – | – | – | – |
| COc1ccc(N2C(=O)c3ccc(Oc4ccc(Oc5ccc(C(=O)O)cc5)cc4)cc3C2=O)cc1 [TIM050] | 5.43 | 5.52 | 5.28 | 5.43 | – | – | – | – | – |
| O=C1c2cccc([N+](=O)[O-])c2C(=O)N1c1cccc(-c2nc3ccccc3c(=O)o2)c1 [TIM136] | 5.24 | 5.00 | 4.99 | 5.00 | – | – | – | – | – |
| CCn1c2ccccc2c2cc([C@H]3Nc4ccccc4NC4=C3C(=O)C[C@@H](c3ccc(OC)cc3)C4)ccc21 [TIM137] | 5.17 | 4.79 | 5.25 | 5.17 | – | – | – | – | – |
| Cc1cc(C)c(S(=O)(=O)Nc2ccc3c(c2)c2c(n3S(=O)(=O)c3cc(C)c(C)cc3C)CCCC2=O)cc1C [TIM146] | 4.82 | 5.19 | 4.42 | 4.82 | – | – | – | – | – |
| Cc1ccc(-n2c(=O)c3cc4c(=O)n(-c5ccc(C)c(C)c5)c(=O)c4c(C(=O)c4ccc(C(=O)O)cc4)c3c2=O)cc1C [TIM148] | 5.19 | 5.07 | 4.92 | 5.07 | – | – | – | – | – |
| COc1cc2c3c(ccc4c5ccc6c7c(cc(OC)c(c1c34)c75)-c1ccccc1C6=O)-c1ccccc1C2=O [TIM192] | 4.88 | 4.89 | 5.09 | 4.89 | – | – | – | – | – |
| Cc1ccc(N2NC(=O)/C(=C/c3ccc(-c4ccc5c(c4)C(=O)NC5=O)o3)C2=O)cc1C [TIM207] | 4.87 | 5.11 | 5.05 | 5.05 | ambiguous | 2.9 | – | – | – |
| O=c1c2cnc3nc(-c4ccc(Cl)cc4)nn3c2ccn1Cc1cccnc1 [TIM215] | 4.86 | 4.84 | 4.92 | 4.86 | – | – | – | – | – |

Further compounds by rising pIC50 [1, 4], results first:

| pIC50 [1, 4] | pIC50 [1, 5] | pIC50 [1, 6] | pIC50 [1, 7] | reversibility classification (hT1) | increase in potency as a result of the jump-dilution (hT1; enzyme pre-incubation vs control reaction, 10-fold expected for irreversible inhibitors) [fold] | inhibition of hT2 [2] | inhibition of hT1 (in words) [1] | SMILES | inhibition of mT1 [3] |
| --- | --- | --- | --- | --- | --- | --- | --- | --- | --- |
| 4.88 | 4.83 | 3.95 | 4.83 | – | – | – | – | Cc1ccc2nc(N3C(=O)C(=O)C(=C(O)c4ccc5c(c4)C[C@H](C)O5)[C@@H]3c3cccs3)sc2c1 [TIM185] | – |
| 4.90 | 5.12 | 4.75 | 4.90 | – | – | no detectable inhibition | did inhibit hT1 | O=C(c1ccc2nonc2c1)N1CCCCC1c1nc2cc(F)ccc2[nH]1 (stereo not shown) [TIM218] | no detectable inhibition; also recorded: does not inhibit mT1 |
| 4.97 | 4.97 | 4.87 | 4.97 | irreversible | – | – | – | O=C(O)c1ccc(-c2ccc(/C=c3\sc4nc5cc(Br)cnc5n4c3=O)o2)cc1 [TIM190] | – |
| 5.07 | 5.11 | 5.00 | 5.07 | – | – | – | – | Cn1c(O)c(N=NC(=O)[C@@H]2COc3cc4ccccc4cc3O2)c2cc(Br)ccc21 [TIM191] | – |
| 5.16 | 5.43 | 5.14 | 5.16 | – | – | – | – | Cc1ccc(-c2noc(-c3cc(N4CCC(C(N)=O)CC4)nc4ccccc34)n2)cc1 [TIM178] | – |
| 5.29 | 5.15 | 5.15 | 5.15 | – | – | – | – | COc1ccc2[nH]c3c(c2c1)CCC[C@H]3NC(=O)COc1ccc2c3c(c(=O)oc2c1)CCCC3 [TIM184] | – |
| 5.44 | 5.07 | 5.06 | 5.07 | – | – | – | – | N#Cc1c(O)nc(SCC(=O)N2c3ccccc3Sc3ccccc32)nc1-c1ccccc1 [TIM183] | – |
| 5.46 | 5.23 | 5.34 | 5.34 | – | – | – | – | CC(C)(C)c1ccc(CC2CCN(C(=O)c3cncn3-c3cccc(-c4cccc5c4sc4ccccc45)c3)CC2)cc1 [TIM181] | – |
| 5.62 | 5.30 | 4.97 | 5.30 | – | – | – | – | O=C1Nc2ccc(S(=O)(=O)ON3C(=O)c4cccc5cccc(c45)C3=O)c3cccc1c23 [TIM213] | – |
